Measurements reported in patent publication US20230310441A1, “TREATMENT FOR SCHIZOPHRENIA” (TAKEDA PHARMACEUTICAL COMPANY, priority 2020, published 2023).
Marks after values point to notes of the source that are not given here.

System: endogenous dopamine release in the human brain
Assay: [^11C]PHNO PET of endogenous dopamine release after d-AMPH challenge
Assay type: in vivo
Settings: for effect on [^11C]PHNO BPND: d-AMPH 0.5 mg/kg single oral dose, all ROI; for ΔBPND^AMPH Mean (SD), Ca / ΔBPND^AMPH Mean (SD), GP / ΔBPND^AMPH Mean (SD), Pu / ΔBPND^AMPH Mean (SD), SN / ΔBPND^AMPH Mean (SD), VSt: d-AMPH only scan
Method: A T1-weighted magnetic resonance imaging (MRI) scan of the brain, performed at screening, was used to obtain anatomical information required for PET data analysis. Each subject underwent three [^11C]PHNO PET scans, one at baseline, the second approximately 3 h after a single oral dose of dex-amphetamine (d-AMPH, 0.5 mg/kg), and the third approximately 5 h after a single oral dose of Compound (I) (20 or 40 mg) and 3 h after an oral dose of dex-amphetamine (d-APMH) (0.5 mg/kg) (FIG. 2).
Subjects were positioned in the PET scanner, after the insertion of a venous cannula in an antecubital or forearm vein. Soft padding and head restraints were used to minimize head movement during data acquisition. All dynamic [^11C]PHNO PET scans were acquired on Siemens Biograph 6 PET/CT scanners (Hi-Rez (PET/CT1) or a TruePoint with TrueV, Siemens Healthcare, Erlangen, Germany). All scans for a particular subject were acquired on the same scanner. A low-dose computed tomography (CT) scan was performed immediately before each PET study to estimate signal attenuation. Following an intravenous bolus injection of [^11C]PHNO, dynamic emission data were acquired for 90 min in 26 frames of increasing duration. The dynamic images were reconstructed using Fourier rebinning and a 2D filtered discrete inverse Fourier transform algorithm with 5 mm isotropic Gaussian filter on a 128×128 matrix with 2.6 zoom giving 2 mm isotropic voxels. Appropriate corrections were applied for attenuation, randoms, and scatter.
The primary set of ROIs defined were the ventral striatum (VSt), putamen (Pu) and cerebellum. […] The cerebellum was used as a reference region. An additional set of ROIs including the caudate nucleus (Ca), globus pallidus (GP) and substantia nigra (SN) was also evaluated.
Regional TAC data extracted from the PET images were fitted using a basis function implementation of the SRTM (Gunn et al., 1997) to estimate the binding potential relative to the non-displaceable component (BPND) for each PET scan, as a measure of specific binding (Innis et al., 2007).
Reduction in [^11C]-PHNO specific binding following a d-AMPH challenge (ΔBPND^APMH) was quantified as percent change in postdose BPND (BPND^AMPH) from baseline BPND (BPND^BL):
Reduction in [^11C]-PHNO specific binding following a combination of Compound (I) and d-AMPH (ΔBPND^APMH+C1) was quantified as percent change in postdose BPND (BPND^AMPH+C1) from baseline BPND (BPND^BL):
The effect of Compound (I) (ΔΔBPND) was quantified as the percent change BPND in ΔBPND^APMH+C1 compared to ΔBPND^APMH:
All statistical comparisons were conducted using Student's t-tests for each ROI, using paired tests for within subject comparisons, and unpaired tests for between group comparisons.

[1] = subjects of the 20 mg Compound (I) group
[2] = subjects of the 40 mg Compound (I) group

C[C@H](N)Cc1ccccc1 [d-AMPH, Dextroamphetamine, reference compound]
effect on [^11C]PHNO BPND: significant reduction in BPND
effect on [^11C]PHNO BPND (listed as d-APMH): robust reduction of [^11C]PHNO BPND
ΔBPND^AMPH Mean (SD), Ca (all subjects): 15.6 (5.7) * %
ΔBPND^AMPH Mean (SD), GP (all subjects): 15.9 (7.7) * %
ΔBPND^AMPH Mean (SD), Pu (all subjects): 21.6 (5.1) * %
ΔBPND^AMPH Mean (SD), SN (all subjects): 27.8 (10.9) * %
ΔBPND^AMPH Mean (SD), VSt (all subjects): 26.5 (7.7) * %
ΔBPND^AMPH Mean (SD), Ca [1]: 17.8 (5.7) * %
ΔBPND^AMPH Mean (SD), GP [1]: 17.6 (1.5) * %
ΔBPND^AMPH Mean (SD), Pu [1]: 23.6 (4.6) * %
ΔBPND^AMPH Mean (SD), SN [1]: 28.4 (9.0) * %
ΔBPND^AMPH Mean (SD), VSt [1]: 25.4 (8.0) * %
ΔBPND^AMPH Mean (SD), Ca [2]: 13.4 (5.3) * %
ΔBPND^AMPH Mean (SD), GP [2]: 14.2 (11.1) * %
ΔBPND^AMPH Mean (SD), Pu [2]: 19.6 (5.3) * %
ΔBPND^AMPH Mean (SD), SN [2]: 27.2 (13.6) * %
ΔBPND^AMPH Mean (SD), VSt [2]: 27.6 (8.2) * %
